Here are results for one compound from publication PMC4640066 (Nature Communications, 2015).

The target in one test is T1, human γ-tubulin (Homo sapiens, UniProt P23258).
T1 construct: myc (C); 6His (C); made in house; host or cells: Sf21 insect cells (baculovirus)
Briefly: Tryptophan-based drug-binding assay, γ-tubulin. To be noted: for Ratio of Kd[α/β-tubulin]/Kd[γ-tubulin]: selectivity for γ-tubulin over α/β-tubulin. The method, then: In brief, 0.7 × 10^6 cells ml^−1 were infected with the γ-tubulin baculovirus. After 48 h, cells were collected by centrifugation at […] for 10 min and flash-frozen in liquid nitrogen and stored at −80 °C. Purification was carried out as described with slight modifications. […] Imidazole (final 10 mM) was added and the lysate was centrifuged again at 192,800g for 30 min at 4 °C. […] Ni-NTA Agarose was then washed twice with wash buffer 1 (lysis buffer containing 25 mM imidazole) and wash buffer 2 (50 mM MES pH 6.6, 500 mM KCl, 5 mM MgCl2, 10% glycerol, 10 μM GTP and 1 mM DTT) containing 25 mM imidazole. γ-Tubulin was eluted with wash buffer 2 containing 200 mM imidazole.
Monomeric γ-tubulin was prepared using a size exclusion column HiLoad 16/60 Superdex 200 pre-equilibrated with gel filtration buffer (50 mM MES pH 6.6, 500 mM KCl, 5 mM MgCl2, 1 mM EGTA, 10 μM GTP and 1 mM DTT). The peak fractions representing monomeric γ-tubulin were identified by A280 and confirmed using SDS–PAGE. Protein was concentrated using a Vivaspin concentrator (Sartorius) and supplemented with 10% glycerol, following snap-freezing in liquid nitrogen and storage at −80 °C.
(§1) Gel filtration buffer for γ-tubulin purification (50 mM MES pH 6.6, 500 mM KCl, 5 mM MgCl2, 1 mM EGTA and 1 mM DTT) supplemented with 10% of glycerol was used as an assay buffer. γ-tubulin and α/β-tubulin were diluted in this assay buffer to reach a final protein concentration of 1 μM. A final concentration of 10 μM or 1 mM GTP was added to the samples. Proteins were incubated for 30 min with compounds (final DMSO concentration was 1%; 2% for AG1 and gatastatin). […] Dissociation constants were calculated from fitting curves of decreasing fluorescence (ΔFL) using the GraphPad Prizm software.

The subject of test [1] is HeLa cells expressing EB3-EGFP (mitotic spindle). Briefly: EB3-EGFP signal tracking, mitotic (MG132 metaphase) cells. Format: cell-based, human. To be noted: 30 μM. The method, then:
Figure 4 Impact of gatastatin on mitotic spindle dynamics. (a,b) γ-Tubulin function is important for normal bipolar spindle formation. (a) Scheme of the experiment in b. HeLa cells were arrested at prometaphase by treatment with 10 μM of STLC for 15 h before STLC was washed out. Progression through mitotic phases was then monitored either in the presence or absence of 30 μM of gatastatin for 2 h. (b) The mitotic stages of 20 cells per experiment from the scheme in a were analysed in three independent experiments. Error bars represent s.d. (c–e) γ-Tubulin function is important for normal bipolar spindle maintenance. (c) Scheme of the experiment in d,e. After STLC washout, HeLa cells were arrested at metaphase with bipolar spindles by treatment with 5 μM of MG132 for 2 h. 30 μM Gatastatin was added to cells and incubated for 2 h in the presence of MG132. (d) The spindle length (distance between centrosomes) of cells in scheme c was measured as described in Fig. 3g. Spindles of 20 cells per experiment were analysed. Three independent experiments were performed and one representative experiment is shown. Error bars represent s.d. Two-tailed, unpaired Student's t-test was used to obtain P value. (e) The effect of gatastatin on spindle MT dynamics was analysed using HeLa cells expressing EB3-EGFP. EB3 signals of spindle in c were monitored. […] Scale bar, 5 μm.
A HeLa ‘Kyoto' cell line stably expressing EB3-EGFP (a kind gift from Dr J. Ellenberg) was maintained in DMEM+GlutaMAX (Gibco) supplemented with 10% FBS, 2 mM L-glutamine, 100 U ml^−1 penicillin, 100 μg ml^−1 streptomycin, 1 mM sodium pyruvate and 0.5 mg ml^−1 G418. Cells were seeded into eight-well Lab-Tek chambers (Nunc, Rochester, NY) for 24-h prior imaging. For imaging, the medium was exchanged to Live Cell Imaging Solution (Molecular Probes Life Technologies) supplemented as described above and containing various concentrations of AG1 or gatastatin. Interphase cells were incubated with drugs for 15 min and mitotic cells were treated as described in Fig. 4c. Then, EB3 tracks were observed under a PerkinElmer UltraVIEW ERS Spinning Disk microscope (Software: UltraVIEW ERS Imaging Suite) equipped with a Plan-APOCHROMAT × 100/1.4 Oil DIC objective, a Confocal Scanner Unit (Yokogawa CSU 22), a Hamamatsu EM CCD camera (C9100-50) and a 488-nm Argon laser at 37 °C, and time-lapse sequences were performed for 60 s with a 400-ms interval. Automatic analysis of EB3-EGFP signal tracks was performed with ImageJ (http://imagej.nih.gov/ij/) and Matlab (Mathworks) as described.

For a further test, the system named is HeLa cells. Briefly: Analysis of interphase MT network. To be noted: 100 μM, 2.5 h. It counts as cell-based, human. As for the experimental part:
HeLa cells were cultured in DMEM containing 10% FBS in a humidified atmosphere containing 5% CO2. After treatment with each compound for 2.5 h (interphase MT network) or 5 h (mitotic spindle), the cells were immediately fixed with cold MeOH (−20 °C). After blocking with PBS containing 0.5% bovine serum albumin, cells were incubated with anti-α-tubulin antibodies (1:500 dilution, Santa Cruz, Cat# sc-32293) to observe interphase cells, or with anti-BubR1 (1:250 dilution, BD Bioscience, Cat# 612502) and anti-α-tubulin (1:250 dilution, MBL, Cat# PM054) antibodies to observe mitotic spindle. After staining with Alexa^488-conjugated anti-mouse IgG (1:2,000 dilution, Invitrogen, Cat#A11001) and Alexa568-conjugated anti-rabbit IgG (1:2000 dilution, Invitrogen, Cat#A11011), cells were washed four times with PBS and mounted with PBS containing 0.1 μg ml^−1 DAPI. MTs and BubR1 signals were observed under a Leica LAS AF 6000 fluorescence microscope (Leica Microsystems) or an LSM 700 laser-scanning confocal microscope (Zeiss).

The next test addresses T2, α/β-tubulin (Sus scrofa, UniProt P02550+P02554).
T2 construct: α/β-Tubulin was purified from porcine brain; from tissue; host or cells: porcine brain
Briefly: Tryptophan-based drug-binding assay, α/β-tubulin. Also on record: species or system porcine. To be noted: tryptophan fluorescence decrease; 1 μM protein; mean±s.d., three independent experiments. The method, then:
γ-TuSC was purified as described. Briefly, γ-TuSC was expressed in HighFive cells and purified by sequential steps of Ni-NTA (Macherei-Nagel) purification, MonoQ column purification (GE Healthcare) and size exclusion (Superdex 200 column, GE Healthcare)[14]. α/β-Tubulin was purified from porcine brain through four cycles of polymerization and depolymerization using 1 M PIPES buffer (1 M PIPES-KOH, 1 mM EGTA, 1 mM MgCl2, pH 6.8) for effective removal of MT-associated proteins.
as §1

[2] abbreviates: 2 h with MG132, mitotic HeLa EB3-EGFP, mean±s.d.

The structures appear in SMILES notation.

T1 sequence (P23258 whole entry): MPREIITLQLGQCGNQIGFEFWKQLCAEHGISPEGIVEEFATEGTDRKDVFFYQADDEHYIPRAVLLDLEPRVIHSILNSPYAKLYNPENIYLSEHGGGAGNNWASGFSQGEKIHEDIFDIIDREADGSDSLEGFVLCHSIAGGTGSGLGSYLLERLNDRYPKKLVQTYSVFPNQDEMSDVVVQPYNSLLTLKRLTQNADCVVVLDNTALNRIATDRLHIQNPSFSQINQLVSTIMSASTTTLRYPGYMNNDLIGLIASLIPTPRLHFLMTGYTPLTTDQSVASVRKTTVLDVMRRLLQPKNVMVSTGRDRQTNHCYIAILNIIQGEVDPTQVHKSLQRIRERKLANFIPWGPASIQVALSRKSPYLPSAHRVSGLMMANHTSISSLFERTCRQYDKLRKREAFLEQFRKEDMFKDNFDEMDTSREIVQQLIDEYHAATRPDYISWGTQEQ
T2 sequence (P02554 whole entry): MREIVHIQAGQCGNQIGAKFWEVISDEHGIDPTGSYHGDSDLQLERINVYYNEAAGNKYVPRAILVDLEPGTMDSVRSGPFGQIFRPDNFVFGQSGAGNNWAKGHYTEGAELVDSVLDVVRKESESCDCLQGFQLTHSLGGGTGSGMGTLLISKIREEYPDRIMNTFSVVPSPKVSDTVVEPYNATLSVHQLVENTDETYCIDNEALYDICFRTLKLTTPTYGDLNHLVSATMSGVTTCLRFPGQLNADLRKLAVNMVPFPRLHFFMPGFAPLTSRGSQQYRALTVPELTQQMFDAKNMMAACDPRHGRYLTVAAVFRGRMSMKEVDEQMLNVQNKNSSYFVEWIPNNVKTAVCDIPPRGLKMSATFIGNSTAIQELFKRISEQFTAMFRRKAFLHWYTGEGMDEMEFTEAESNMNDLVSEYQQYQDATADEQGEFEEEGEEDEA
T2 sequence (P02550 whole entry): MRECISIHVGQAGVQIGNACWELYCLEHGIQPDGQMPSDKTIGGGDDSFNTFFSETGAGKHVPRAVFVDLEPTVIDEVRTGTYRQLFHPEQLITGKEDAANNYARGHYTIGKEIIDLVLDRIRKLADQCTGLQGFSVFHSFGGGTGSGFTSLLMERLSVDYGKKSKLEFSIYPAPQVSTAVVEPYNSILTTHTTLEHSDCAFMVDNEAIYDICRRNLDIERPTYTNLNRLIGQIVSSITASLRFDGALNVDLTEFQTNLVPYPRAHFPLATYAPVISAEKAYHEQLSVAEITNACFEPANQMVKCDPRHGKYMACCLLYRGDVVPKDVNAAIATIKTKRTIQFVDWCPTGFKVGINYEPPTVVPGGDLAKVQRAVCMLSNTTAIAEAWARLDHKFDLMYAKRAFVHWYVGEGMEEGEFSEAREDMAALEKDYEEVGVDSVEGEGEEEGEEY

Consider `COc1cc2c(=O)c(-c3cc(OC)c4c(c3OC)OCO4)coc2cc1OCc1ccccc1` [Gatastatin, O^7-demethylbenzyl AG1], for which the “Ratio of Kd[α/β-tubulin]/Kd[γ-tubulin]” value on human γ-tubulin worked out at 11.81; on human γ-tubulin (listed as gatastatin) it was 12. The Kd on human γ-tubulin (tryptophan fluorescence decrease, 1 μM protein, mean±s.d., three independent experiments) came to 3.6 ± 1.3 µM; on α/β-tubulin it was 42.5 ± 36.7 µM. In test [1] (setting [2]), this compound yielded a Track length of 0.53±0.09 μm. This compound also showed a Track lifetime in test [1] (setting [2]) of 1.76 ± 0.66 s. In test [1] (setting [2]), this compound came in with a Velocity of 11.21±1.68 μm min^−1. The same compound had a Track numbers in test [1] (2 h with MG132, mitotic, from a 25-μm^2 area in the spindle) of 37.27±8.12. Further, the “Reduction of the number of growing MTs” value in test [1] (preformed metaphase spindle (MG132), compared with control) is given as 17%. For the same compound, in the test on HeLa cells, the “Effect on interphase MT network” value is given as “did not obviously change the appearance of the interphase MT network”.
